{
  "source": "patent US8354416B2",
  "about": "(Glaxo Group Limited, priority 2005, dated 2013)",
  "data": [
    {"system": "influx of neutrophils to the lung in LPS-challenged rats", "experiment": "Rat LPS neutrophilia model", "type": "in vivo", "settings": "intratracheal, LPS aerosol 100 ug/ml, in at least one of the range of conditions tested, significance p<0.05", "experimental": "Rat LPS Neutrophilia Model\nThe effect of compounds on the influx of neutrophils to the lung in LPS-challenged rats is evaluated as follows. The test compound is suspended in one of the following solutions: 0.5% tween 80/PBS, 0.5% tween 80/saline, 10% EtOH/saline (with pH adjusted to 2.0, or 8.0 with HCl, or unadjusted), Saline (pH 2.0, 6.5 or 8.0, 0.5% Tragacanth, 1% DMSO/20% Encapsin/Saline, or acidified 5% Tragacanth. The suspension process may be aided by the use of a glass homogenizer. For intratracheal administration, the animals are anesthetized with inhaled isoflurane and placed in a supine position, the trachea is intubated with a steel gavage needle (1.5 inch, 22 gauge, small ball) or a Penn-Century Microsprayer Aerosolizer (model IA-1B) and 200 ul of dosing solution is delivered. The animals are visually monitored during the recovery process, which typically occurs within two minutes. It is noted that the test compounds may be alternatively administered via the microsprayer in a dry powder blend with a suitable excipient, such as lactose.\nRats treated with compound or vehicle (15 min-24 hours pretreatment) are exposed to an LPS aerosol (100 ug/ml) for 15 min. Four hours later the rats are euthanized with pentobarbital (100 mg/kg, i.p.) and the airways are lavaged with 5 washes of 5 ml of phosphate buffered saline. The harvested cells are stained (Diffquick) and counted to determine total and differential cell data. […] Inhibition of neutrophil levels relative to no compound controls is calculated based on the differential counts.\nThe data is obtained as % inhibition using a particular concentration and pretreat time.", "values": [
      {"compound": "Cc1ccc(C(=O)NC(C)C)cc1-c1nc(NCCN(C)C)nc2c1ccc(=O)n2-c1c(F)cccc1F", "note": "[Example 117, 3-(8-(2,6-difluorophenyl)-2-{[2-(dimethylamino)ethyl]amino}-7-oxo-7,8-dihydropyrido[2,3-d]pyrimidin-4-yl)-4-methyl-N-(1-methylethyl)benzamide]", "inhibition of neutrophilia (neutrophil levels in airway lavage relative to no compound controls)": "statistically significant inhibition of neutrophilia"},
      {"compound": "Cc1ccc(C(=O)NC(C)C)cc1-c1nc(N2CCC(N)CC2)nc2c1ccc(=O)n2-c1c(F)cccc1F", "note": "[Example 68, 3-[2-(4-amino-1-piperidinyl)-8-(2,6-difluorophenyl)-7-oxo-7,8-dihydropyrido[2,3-d]pyrimidin-4-yl]-4-methyl-N-(1-methylethyl)benzamide]", "inhibition of neutrophilia (neutrophil levels in airway lavage relative to no compound controls)": "statistically significant inhibition of neutrophilia"},
      {"compound": "Cc1ccc(C(=O)NC2CCCC2)cc1-c1nc(N2CCC(N)CC2)nc2c1ccc(=O)n2-c1c(F)cccc1F", "note": "[Example 70, 3-[2-(4-amino-1-piperidinyl)-8-(2,6-difluorophenyl)-7-oxo-7,8-dihydropyrido[2,3-d]pyrimidin-4-yl]-N-cyclopentyl-4-methylbenzamide]", "inhibition of neutrophilia (neutrophil levels in airway lavage relative to no compound controls)": "statistically nonsignificant inhibition of neutrophilia"},
      {"compound": "Cc1ccc(C(=O)NCC(C)C)cc1-c1nc(N2CCC(N3CCC(C)CC3)CC2)nc2c1ccc(=O)n2-c1c(F)cccc1F", "note": "[Example 168, 3-[8-(2,6-difluorophenyl)-2-(4-methyl-1,4′-bipiperidin-1′-yl)-7-oxo-7,8-dihydropyrido[2,3-d]pyrimidin-4-yl]-4-methyl-N-(2-methylpropyl)benzamide]", "inhibition of neutrophilia (neutrophil levels in airway lavage relative to no compound controls)": "inactive"},
      {"compound": "Cc1ccc(C(=O)Nc2ccc(F)cc2)cc1-c1nc(N(C)CCN(C)C)nc2c1ccc(=O)n2-c1c(F)cccc1F", "note": "[Example 99, 3-{8-(2,6-difluorophenyl)-2-[[2-(dimethylamino)ethyl](methyl)amino]-7-oxo-7,8-dihydropyrido[2,3-d]pyrimidin-4-yl}-N-(4-fluorophenyl)-4-methylbenzamide]", "inhibition of neutrophilia (neutrophil levels in airway lavage relative to no compound controls)": "statistically nonsignificant inhibition of neutrophilia"},
      {"compound": "Cc1ccc(C(=O)NC2CC2)cc1-c1nc(NCc2ncc[nH]2)nc2c1ccc(=O)n2-c1c(F)cccc1F", "note": "[Example 23, N-cyclopropyl-3-{8-(2,6-difluorophenyl)-2-[(1H-imidazol-2-ylmethyl)amino]-7-oxo-7,8-dihydropyrido[2,3-d]pyrimidin-4-yl}-4-methylbenzamide]", "inhibition of neutrophilia (neutrophil levels in airway lavage relative to no compound controls)": "statistically nonsignificant inhibition of neutrophilia"},
      {"compound": "CCCCNC(=O)c1ccc(C)c(-c2nc(N3CCC(N4CCC(C)CC4)CC3)nc3c2ccc(=O)n3-c2c(F)cccc2F)c1", "note": "[Example 167, N-butyl-3-[8-(2,6-difluorophenyl)-2-(4-methyl-1,4′-bipiperidin-1′-yl)-7-oxo-7,8-dihydropyrido[2,3-d]pyrimidin-4-yl]-4-methylbenzamide]", "inhibition of neutrophilia (neutrophil levels in airway lavage relative to no compound controls)": "statistically significant inhibition of neutrophilia"},
      {"compound": "Cc1ccc(C(=O)NCc2ccccc2)cc1-c1nc(NCc2ncc[nH]2)nc2c1ccc(=O)n2-c1c(F)cccc1F", "note": "[Example 77, 3-{8-(2,6-difluorophenyl)-2-[(1H-imidazol-2-ylmethyl)amino]-7-oxo-7,8-dihydropyrido[2,3-d]pyrimidin-4-yl}-4-methyl-N-(phenylmethyl)benzamide]", "inhibition of neutrophilia (neutrophil levels in airway lavage relative to no compound controls)": "statistically significant inhibition of neutrophilia"},
      {"compound": "Cc1ccc(C(=O)Nc2nccs2)cc1-c1nc(NC2CC(C)(C)NC(C)(C)C2)nc2c1ccc(=O)n2-c1c(F)cccc1F", "note": "[Example 67, 3-{8-(2,6-difluorophenyl)-7-oxo-2-[(2,2,6,6-tetramethyl-4-piperidinyl)amino]-7,8-dihydropyrido[2,3-d]pyrimidin-4-yl}-4-methyl-N-1,3-thiazol-2-ylbenzamide]", "inhibition of neutrophilia (neutrophil levels in airway lavage relative to no compound controls)": "statistically nonsignificant inhibition of neutrophilia"},
      {"compound": "Cc1ccc(C(=O)Nc2ccc(F)cc2)cc1-c1nc(NCCN(C)C(=O)OC(C)(C)C)nc2c1ccc(=O)n2-c1c(F)cccc1F", "note": "[Example 95, 1,1-dimethylethyl (2-{[8-(2,6-difluorophenyl)-4-(5-{[(4-fluorophenyl)amino]carbonyl}-2-methylphenyl)-7-oxo-7,8-dihydropyrido[2,3-d]pyrimidin-2-yl]amino}ethyl)methylcarbamate]", "inhibition of neutrophilia (neutrophil levels in airway lavage relative to no compound controls)": "statistically nonsignificant inhibition of neutrophilia"},
      {"compound": "Cc1ccc(C(=O)Nc2ccc(F)cc2)cc1-c1nc(N2CCC(N)CC2)nc2c1ccc(=O)n2-c1c(F)cccc1F", "note": "[Example 72, 3-[2-(4-amino-1-piperidinyl)-8-(2,6-difluorophenyl)-7-oxo-7,8-dihydropyrido[2,3-d]pyrimidin-4-yl]-N-(4-fluorophenyl)-4-methylbenzamide]", "inhibition of neutrophilia (neutrophil levels in airway lavage relative to no compound controls)": "statistically significant inhibition of neutrophilia"},
      {"compound": "CNCCNc1nc(-c2cc(C(=O)NC(C)C)ccc2C)c2ccc(=O)n(-c3c(F)cccc3F)c2n1", "note": "[Example 57, 3-(8-(2,6-difluorophenyl)-2-{[2-(methylamino)ethyl]amino}-7-oxo-7,8-dihydropyrido[2,3-d]pyrimidin-4-yl)-4-methyl-N-(1-methylethyl)benzamide]", "inhibition of neutrophilia (neutrophil levels in airway lavage relative to no compound controls)": "statistically significant inhibition of neutrophilia"},
      {"compound": "Cc1ccc(C(=O)Nc2ccc(F)cc2)cc1-c1nc(N2CCC(N3CCC(C)CC3)CC2)nc2c1ccc(=O)n2-c1c(F)cccc1F", "note": "[Example 174, 3-[8-(2,6-difluorophenyl)-2-(4-methyl-1,4′-bipiperidin-1′-yl)-7-oxo-7,8-dihydropyrido[2,3-d]pyrimidin-4-yl]-N-(4-fluorophenyl)-4-methylbenzamide]", "inhibition of neutrophilia (neutrophil levels in airway lavage relative to no compound controls)": "inactive"},
      {"compound": "CCN(CC)CCCNc1nc(-c2cc(C(=O)NCCOC)ccc2C)c2ccc(=O)n(-c3c(F)cccc3F)c2n1", "note": "[Example 134, 3-[2-{[3-(diethylamino)propyl]amino}-8-(2,6-difluorophenyl)-7-oxo-7,8-dihydropyrido[2,3-d]pyrimidin-4-yl]-4-methyl-N-[2-(methyloxy)ethyl]benzamidetrifluoroacetate]", "inhibition of neutrophilia (neutrophil levels in airway lavage relative to no compound controls)": "statistically nonsignificant inhibition of neutrophilia"},
      {"compound": "CCN(CC)CCCNc1nc(-c2cc(C(=O)NCC3CCCCC3)ccc2C)c2ccc(=O)n(-c3c(F)cccc3F)c2n1", "note": "[Example 135, N-(cyclohexylmethyl)-3-[2-{[3-(diethylamino)propyl]amino}-8-(2,6-difluorophenyl)-7-oxo-7,8-dihydropyrido[2,3-d]pyrimidin-4-yl]-4-methylbenzamidetrifluoroacetate]", "inhibition of neutrophilia (neutrophil levels in airway lavage relative to no compound controls)": "inactive"},
      {"compound": "CCCNC(=O)c1ccc(C)c(-c2nc(NCCN(C)C)nc3c2ccc(=O)n3-c2c(F)cccc2F)c1", "note": "[Example 105, 3-(8-(2,6-difluorophenyl)-2-{[2-(dimethylamino)ethyl]amino}-7-oxo-7,8-dihydropyrido[2,3-d]pyrimidin-4-yl)-4-methyl-N-propylbenzamide]", "inhibition of neutrophilia (neutrophil levels in airway lavage relative to no compound controls)": "statistically significant inhibition of neutrophilia"}
    ]}
  ]
}
